One test deals with T1, human URAT1 (Homo sapiens, UniProt Q96S37).
T1 construct: Full-length cDNA of human URAT1 (hURAT1)
T1 sequence (Q96S37 1-553): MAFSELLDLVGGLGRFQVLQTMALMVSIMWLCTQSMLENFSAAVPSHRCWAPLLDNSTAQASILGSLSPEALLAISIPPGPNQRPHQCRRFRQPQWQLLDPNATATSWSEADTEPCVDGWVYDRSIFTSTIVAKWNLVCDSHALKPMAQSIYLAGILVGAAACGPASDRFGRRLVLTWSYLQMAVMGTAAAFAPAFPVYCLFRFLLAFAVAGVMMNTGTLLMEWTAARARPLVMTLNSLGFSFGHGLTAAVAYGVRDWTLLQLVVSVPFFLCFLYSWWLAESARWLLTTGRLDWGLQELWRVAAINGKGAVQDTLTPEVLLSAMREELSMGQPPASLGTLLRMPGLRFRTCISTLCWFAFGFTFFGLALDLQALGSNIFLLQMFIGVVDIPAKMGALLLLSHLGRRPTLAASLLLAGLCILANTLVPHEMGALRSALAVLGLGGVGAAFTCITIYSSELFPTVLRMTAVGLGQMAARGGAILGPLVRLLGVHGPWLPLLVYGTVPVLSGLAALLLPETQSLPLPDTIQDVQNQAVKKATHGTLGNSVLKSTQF
Nature of the test: Test for inhibition of uric acid transport using human URAT1-expressing cells. The conditions noted are these: HEK 293 cells expressing human URAT1; 14C-labeled uric acid 25 μM; uptake 37° C. for 5 min; read-out: IC50 (concentration of the compound at which the uric acid transport rate is inhibited by 50%). It counts as cell-based. The procedure:
Test for Inhibition of Uric Acid Transport Using Human URAT1-Expressing Cells
2-(5-chloropyridin-3-yl)-1-(2,5-dichlorobenzyl)-4-methyl-1H-imidazole-5-carboxylic acid was dissolved in DMSO (produced by Sigma) to a concentration of 20 mM and the concentration was subsequently adjusted to a value desired for use. Full-length cDNA of human URAT1 (hURAT1) (produced by OriGene Technologies, Inc., NCBI Reference Sequence: NM 144585) was subcloned into an expression vector, pCMV6-Kan/Neo (produced by OriGene Technologies, Inc.), and hURAT1 gene was transfected into human embryonic kidney-derived cells (HEK 293 cells) by liposome method using Lipofectamine 2000 (produced by Invitrogen Corporation), whereupon HEK 293 cells expressing human URAT1 gene were selected on the basis of Geneticin resistance. […]
After the medium was removed by aspiration from each well, the medium was replaced with a solution obtained by substituting NaCl in Hank's Balanced Salt Solution (HBSS) with Na gluconate (hereinafter, HBSS/Na-gluconate) and the cells were preincubated at 37° C. for about 10 minutes. […] The cell sample and a liquid scintillation liquid, ULTIMA GOLD (produced by PerkinElmer, Inc.) were mixed and the radioactivity was measured by a liquid scintillation counter (Beckman Coulter, Inc.). […]

Another test concerns Cebus apella. Nature of the test: Drug efficacy evaluation test for Cebus apella (uric acid excretion rate). It counts as in vivo. The conditions noted are these: 3 mg/kg to 30 mg/kg in 0.5% methylcellulose, administered from the nasal cavity to the stomach, samples up to 24 hours. The protocol:
Drug Efficacy Evaluation Test for Cebus Apella 2-(5-chloropyridin-3-yl)-1-(2,5-dichlorobenzyl)-4-methyl-1H-imidazole-5-carboxylic acid (3 mg/kg to 30 mg/kg) dispersed in a 0.5% methylcellulose solution was administered to Cebus apella from the nasal cavity to the stomach using a disposable catheter and a syringe barrel. Blood samples were taken before administration and 30 minutes, 1 hour, 2 hours, 4 hours, 8 hours, 12 hours, and 24 hours after administration; and urine samples were collected for the time intervals of immediately after to 4 hours after administration, from 4 hours to 8 hours after administration, from 8 hours to 16 hours after administration, and from 16 hours to 24 hours after administration. Concentrations of uric acid and creatinine in the blood and urine samples collected were measured by an automatic analyzer (JEOL Ltd.). Uric acid and […] were measured using L-type Wako UA•F (Wako Pure Chemicals Industries, Ltd.) and L-type Creatine F (Wako Pure Chemicals Industries, Ltd.), respectively. Uric acid clearance was calculated from the uric acid concentrations in blood and urine and, similarly, creatinine clearance was calculated from the creatinine concentrations.

Some results are limits rather than exact numbers.

Regarding `Cc1nc(-c2cncc(Cl)c2)n(Cc2cc(Cl)ccc2Cl)c1C(=O)O` [2-(5-chloropyridin-3-yl)-1-(2,5-dichlorobenzyl)-4-methyl-1H-imidazole-5-carboxylic acid], the IC50 at human URAT1 was no more than 200 nM. Moreover, in the test with Cebus apella, the “activity to promote uric acid excretion (uric acid excretion rate)” value is reported as “excellent activity to promote uric acid excretion”.
